# Experimental data reported in patent US20070232563A1, “Method for Enhancing Biological Activity and/or Expanding Suitable Region for Biological Activity of Living Body Contacting with Aqueous Environment” (Kabushiki Kaisha Hayashibara Seibutsu Kagaku Kenky, priority 2004, published 2007).
# Key:
# Format in all cases: in vivo
# [1] = tested on: colbicula (Corbicula leana); assay: Biological activity of corbicula (aqueduct extension score) in aqueous mineral solutions
# Excerpt: Influence of various saccharides was judged by observing the degree of extending aqueduct of the shellfish; 3 points: its aqueduct is well extended; 2 points: its aqueduct is slightly extended; 1 point: its aqueduct is not extended but its shells are opened; 0 point: its shells are closed. The effect on biological activity was judged by the total point of 18 shellfishes.
# Suitable region for biological activity was examined by using colbicula (Corbicula leana) as fishes and shellfishes living in fresh water in the case of enhancing their biological activity by using aqueous mineral solutions containing various saccharides. In detail, solar salt (85% by weight of sodium chloride and 15% by weight of magnesium) as minerals was dissolved in tap water kept in a container for two days to give final concentrations described in the following Table 4. Saccharide (any one of D-glucose, maltose, sucrose, maltitol, α,α-trehalose, α-maltosyl α,α-trehalose, maltotetraose and cyclic tetrasaccharide) was dissolved in the resulting salt solutions to give a final concentration of 1 w/v %, on a dry solid basis. The resulting each solution was placed in a plastic bat. Eighteen pre-selected active shellfishes in one group were placed in the bat. The bat was shaded with a black cloth and left at ambient temperature (18° C.) for 16 hours. As a control, an aqueous solar salt solution without saccharides was prepared. Biological activity of the shellfish was judged by measuring extend their aqueducts macroscopically in the same manner as in Experiment 1.
# Effective concentration range of α,α-trehalose or α-maltosyl α,α-trehalose on enhancing biological activity and/or influencing on suitable region for biological activity of colbicula (Corbicula leana) was determined according to the method of Experiment 4 by examining biological activity of the shellfish in the aqueous mineral solution with a mineral concentration of 1.5 w/v %, where α,α-trehalose or α-maltosyl α,α-trehalose was effective in Experiment 4, containing α,α-trehalose or α-maltosyl α,α-trehalose at a concentration of 0.01, 0.1, 1, 2, 3 or 4 w/v %, on a dry solid basis. As a control, a solution containing 1.5 w/v % of mineral without such saccharides was prepared and treated in the same manner.
# [2] = tested on: unpolished rice; assay: Germination of unpolished rice in aqueous mineral solution
# Protocol: Suitable mineral range of aqueous mineral solutions containing saccharides was examined by using unpolished rice as an agricultural product. In detail, a commercialized purified salt as a mineral was dissolved in tap water to give a final concentration of 0.5, 1.0, 1.5, or 2.0 as described in the following Table 6. α,α-Trehalose or α-maltosyl α,α-trehalose was dissolved in the resulting solutions to give a final concentration of 1 w/v %, on a dry solid basis. Absorbent cotton was allowed to absorb the resulting solution in an appropriate amount and placed in a plastic laboratory dish with a cover. Commercialized unpolished rice grains were placed on the cotton in the dish by 20 grains per group and kept at ambient temperature (25° C.) under a light-shaded condition by covering with a black cloth. As controls, an aqueous mineral solution without saccharides, and water without saccharides and minerals were prepared. […] Effective concentration of α,α-trehalose or α-maltosyl α,α-trehalose on expanding suitable region for biological activity of unpolished rice grains were determined by examining the number of germinated unpolished rice grains and germination time as an index in accordance with the method in Experiment 6 in the aqueous mineral solution with mineral concentration of 1.5 w/v %, where α,α-trehalose or α-maltosyl α,α-trehalose was effective in Experiment 6, containing α,α-trehalose or α-maltosyl α,α-trehalose in a concentration of 0.01, 0.1, 1, 2, 3, 4 or 6 w/v %, on a dry solid basis. As a control, water without saccharides or minerals was used.
# [3] = tested on: alfalfa; assay: Cultivation of sprout food (alfalfa) in aqueous mineral solution: stem extension, flavor and taste panel; details: aerial part (stem) height vs water control; each ingredient 1 (w/v)%; three days, 18° C.
# Excerpt: Absorbent cotton was allowed to absorb aqueous solution containing on a dry solid basis 1 w/v % of mineral (sodium chloride) and 1 w/v % of α,α-trehalose or α-maltosyl α,α-trehalose and placed in a transparent container. One hundred per group commercialized alfalfa seeds were placed in the container. As references, waters containing either of mineral, α,α-trehalose or α-maltosyl α,α-trehalose were used. As a control, water was used. After covered with a transparent lid, the container was placed in a room under a borrowed light at 18° C. for three days to cultivate alfalfa. The grown alfalfa plants were measured to calculate average value of aerial part (stem) height. Relative extension rate was calculated in such a manner of comparing the average value of each sample with that of control. In addition, 20 panels were judged in view of flavor and taste in such a manner of comparing each sample with control cultivated in water.
structure (smiles),measurement,setting,value
"OC[C@H]1O[C@H](O[C@H]2O[C@H](CO)[C@@H](O)[C@H](O)[C@H]2O)[C@H](O)[C@@H](O)[C@@H]1O [α,α-Trehalose, α,α-trehalose]",Judgment score of biological activity,"[1]; Experiment 5, mineral 1.5 w/v %, saccharide 0.01 w/v %",21
same,Judgment score of biological activity,"[1]; Experiment 5, mineral 1.5 w/v %, saccharide 0.1 w/v %",39
same,Judgment score of biological activity,"[1]; Experiment 5, mineral 1.5 w/v %, saccharide 1 w/v %",52
same,Judgment score of biological activity,"[1]; Experiment 5, mineral 1.5 w/v %, saccharide 2 w/v %",48
same,Judgment score of biological activity,"[1]; Experiment 5, mineral 1.5 w/v %, saccharide 3 w/v %",39
same,Judgment score of biological activity,"[1]; Experiment 5, mineral 1.5 w/v %, saccharide 4 w/v %",25
same,Judgment score of biological activity,"[1]; mineral concentration 0, saccharide 1 w/v %, total of 18 shellfishes, 16 h",54
same,Judgment score of biological activity,"[1]; mineral concentration 0.5, saccharide 1 w/v %, total of 18 shellfishes, 16 h",53
same,Judgment score of biological activity,"[1]; mineral concentration 1.0, saccharide 1 w/v %, total of 18 shellfishes, 16 h",52
same,Judgment score of biological activity,"[1]; mineral concentration 1.5, saccharide 1 w/v %, total of 18 shellfishes, 16 h",49
same,Judgment score of biological activity,"[1]; mineral concentration 2.0, saccharide 1 w/v %, total of 18 shellfishes, 16 h",42
same,Judgment score of biological activity,"[1]; mineral concentration 2.5, saccharide 1 w/v %, total of 18 shellfishes, 16 h",20
same,Judgment score of biological activity,"[1]; mineral concentration 3.0, saccharide 1 w/v %, total of 18 shellfishes, 16 h",6
same,Germinated grains (Number),"[2]; Experiment 7, mineral 1.5 w/v %, saccharide 0.01 w/v %, 48 hours",0
same,Germinated grains (Number),"[2]; Experiment 7, mineral 1.5 w/v %, saccharide 0.01 w/v %, 72 hours",1
same,Germinated grains (Number),"[2]; Experiment 7, mineral 1.5 w/v %, saccharide 0.01 w/v %, 96 hours",2
same,Germinated grains (Number),"[2]; Experiment 7, mineral 1.5 w/v %, saccharide 0.01 w/v %, 120 hours",3
same,Germinated grains (Number),"[2]; Experiment 7, mineral 1.5 w/v %, saccharide 0.1 w/v %, 48 hours",0
same,Germinated grains (Number),"[2]; Experiment 7, mineral 1.5 w/v %, saccharide 0.1 w/v %, 72 hours",2
same,Germinated grains (Number),"[2]; Experiment 7, mineral 1.5 w/v %, saccharide 0.1 w/v %, 96 hours",5
same,Germinated grains (Number),"[2]; Experiment 7, mineral 1.5 w/v %, saccharide 0.1 w/v %, 120 hours",6
same,Germinated grains (Number),"[2]; Experiment 7, mineral 1.5 w/v %, saccharide 1 w/v %, 48 hours",1
same,Germinated grains (Number),"[2]; Experiment 7, mineral 1.5 w/v %, saccharide 1 w/v %, 72 hours",4
same,Germinated grains (Number),"[2]; Experiment 7, mineral 1.5 w/v %, saccharide 1 w/v %, 96 hours",6
same,Germinated grains (Number),"[2]; Experiment 7, mineral 1.5 w/v %, saccharide 1 w/v %, 120 hours",6
same,Germinated grains (Number),"[2]; Experiment 7, mineral 1.5 w/v %, saccharide 2 w/v %, 48 hours",3
same,Germinated grains (Number),"[2]; Experiment 7, mineral 1.5 w/v %, saccharide 2 w/v %, 72 hours",6
same,Germinated grains (Number),"[2]; Experiment 7, mineral 1.5 w/v %, saccharide 2 w/v %, 96 hours",7
same,Germinated grains (Number),"[2]; Experiment 7, mineral 1.5 w/v %, saccharide 2 w/v %, 120 hours",7
same,Germinated grains (Number),"[2]; Experiment 7, mineral 1.5 w/v %, saccharide 3 w/v %, 48 hours",3
same,Germinated grains (Number),"[2]; Experiment 7, mineral 1.5 w/v %, saccharide 3 w/v %, 72 hours",6
same,Germinated grains (Number),"[2]; Experiment 7, mineral 1.5 w/v %, saccharide 3 w/v %, 96 hours",6
same,Germinated grains (Number),"[2]; Experiment 7, mineral 1.5 w/v %, saccharide 3 w/v %, 120 hours",6
same,Germinated grains (Number),"[2]; Experiment 7, mineral 1.5 w/v %, saccharide 4 w/v %, 48 hours",1
same,Germinated grains (Number),"[2]; Experiment 7, mineral 1.5 w/v %, saccharide 4 w/v %, 72 hours",6
same,Germinated grains (Number),"[2]; Experiment 7, mineral 1.5 w/v %, saccharide 4 w/v %, 96 hours",6
same,Germinated grains (Number),"[2]; Experiment 7, mineral 1.5 w/v %, saccharide 4 w/v %, 120 hours",6
same,Germinated grains (Number),"[2]; Experiment 7, mineral 1.5 w/v %, saccharide 6 w/v %, 48 hours",0
same,Germinated grains (Number),"[2]; Experiment 7, mineral 1.5 w/v %, saccharide 6 w/v %, 72 hours",2
same,Germinated grains (Number),"[2]; Experiment 7, mineral 1.5 w/v %, saccharide 6 w/v %, 96 hours",2
same,Germinated grains (Number),"[2]; Experiment 7, mineral 1.5 w/v %, saccharide 6 w/v %, 120 hours",2
same,Germinated grains (Number),"[2]; mineral 0.5 w/v %, saccharide 1 w/v %, 24 hours, 20 grains",0
same,Germinated grains (Number),"[2]; mineral 0.5 w/v %, saccharide 1 w/v %, 48 hours, 20 grains",20
same,Germinated grains (Number),"[2]; mineral 0.5 w/v %, saccharide 1 w/v %, 72 hours, 20 grains",20
same,Germinated grains (Number),"[2]; mineral 0.5 w/v %, saccharide 1 w/v %, 96 hours, 20 grains",20
same,Germinated grains (Number),"[2]; mineral 0.5 w/v %, saccharide 1 w/v %, 120 hours, 20 grains",20
same,Germinated grains (Number),"[2]; mineral 1.0 w/v %, saccharide 1 w/v %, 24 hours, 20 grains",0
same,Germinated grains (Number),"[2]; mineral 1.0 w/v %, saccharide 1 w/v %, 48 hours, 20 grains",17
same,Germinated grains (Number),"[2]; mineral 1.0 w/v %, saccharide 1 w/v %, 72 hours, 20 grains",20
same,Germinated grains (Number),"[2]; mineral 1.0 w/v %, saccharide 1 w/v %, 96 hours, 20 grains",20
same,Germinated grains (Number),"[2]; mineral 1.0 w/v %, saccharide 1 w/v %, 120 hours, 20 grains",20
same,Germinated grains (Number),"[2]; mineral 1.5 w/v %, saccharide 1 w/v %, 24 hours, 20 grains",0
same,Germinated grains (Number),"[2]; mineral 1.5 w/v %, saccharide 1 w/v %, 48 hours, 20 grains",1
same,Germinated grains (Number),"[2]; mineral 1.5 w/v %, saccharide 1 w/v %, 72 hours, 20 grains",4
same,Germinated grains (Number),"[2]; mineral 1.5 w/v %, saccharide 1 w/v %, 96 hours, 20 grains",6
same,Germinated grains (Number),"[2]; mineral 1.5 w/v %, saccharide 1 w/v %, 120 hours, 20 grains",6
same,Germinated grains (Number),"[2]; mineral 2.0 w/v %, saccharide 1 w/v %, 24 hours, 20 grains",0
same,Germinated grains (Number),"[2]; mineral 2.0 w/v %, saccharide 1 w/v %, 48 hours, 20 grains",0
same,Germinated grains (Number),"[2]; mineral 2.0 w/v %, saccharide 1 w/v %, 72 hours, 20 grains",0
same,Germinated grains (Number),"[2]; mineral 2.0 w/v %, saccharide 1 w/v %, 96 hours, 20 grains",0
same,Germinated grains (Number),"[2]; mineral 2.0 w/v %, saccharide 1 w/v %, 120 hours, 20 grains",0
same,Relative extension (%),[3],101%
